Experimental data: BindingDB's records for doi:10.1038/sj.bjp.0702201 (Smithkline Beecham Pharmaceuticals, 1998)

How the values were obtained:
[1] = target: 5-hydroxytryptamine receptor 4 (Sus scrofa, UniProt Q29006)
[2] = target: D(2) dopamine receptor (Homo sapiens, UniProt P14416)
[3] = target: Muscarinic acetylcholine receptor M3 (Homo sapiens, UniProt P20309)
[4] = target: 5-hydroxytryptamine receptor 1B (Homo sapiens, UniProt P28222)
[5] = target: T1, Alpha-1B adrenergic receptor (Homo sapiens, UniProt P35368)
T1 sequence (P35368 whole entry): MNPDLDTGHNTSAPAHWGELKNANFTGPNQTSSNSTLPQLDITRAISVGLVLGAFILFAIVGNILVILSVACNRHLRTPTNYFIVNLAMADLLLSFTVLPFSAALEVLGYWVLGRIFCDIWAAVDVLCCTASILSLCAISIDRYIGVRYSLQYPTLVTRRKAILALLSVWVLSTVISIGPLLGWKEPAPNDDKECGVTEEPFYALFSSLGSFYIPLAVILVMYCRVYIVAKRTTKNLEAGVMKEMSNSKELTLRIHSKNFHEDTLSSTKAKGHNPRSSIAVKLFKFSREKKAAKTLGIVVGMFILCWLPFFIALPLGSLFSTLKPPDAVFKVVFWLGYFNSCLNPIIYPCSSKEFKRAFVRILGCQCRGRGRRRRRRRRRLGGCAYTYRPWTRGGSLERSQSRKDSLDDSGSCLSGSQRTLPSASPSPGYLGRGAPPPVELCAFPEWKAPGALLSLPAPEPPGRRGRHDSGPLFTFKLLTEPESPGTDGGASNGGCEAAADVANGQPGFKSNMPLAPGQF

[6] = target: T2, 5-hydroxytryptamine receptor 2C (Homo sapiens, UniProt P28335)
T2 sequence (P28335 whole entry): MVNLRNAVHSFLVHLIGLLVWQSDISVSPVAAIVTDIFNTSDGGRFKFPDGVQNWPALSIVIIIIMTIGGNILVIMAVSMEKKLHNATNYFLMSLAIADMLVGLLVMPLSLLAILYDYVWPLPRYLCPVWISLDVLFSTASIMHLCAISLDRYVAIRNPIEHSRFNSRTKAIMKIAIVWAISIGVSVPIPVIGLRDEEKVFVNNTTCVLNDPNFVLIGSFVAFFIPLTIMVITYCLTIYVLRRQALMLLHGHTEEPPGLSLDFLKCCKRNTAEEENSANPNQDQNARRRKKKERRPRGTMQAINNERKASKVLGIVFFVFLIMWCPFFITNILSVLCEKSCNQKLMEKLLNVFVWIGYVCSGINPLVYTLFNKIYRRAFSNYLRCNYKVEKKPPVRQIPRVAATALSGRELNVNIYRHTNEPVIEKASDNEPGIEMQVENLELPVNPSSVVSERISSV

[7] = target: 5-hydroxytryptamine receptor 1E (Homo sapiens, UniProt P28566)
[8] = target: 5-hydroxytryptamine receptor 2B (Homo sapiens, UniProt P41595)
[9] = target: 5-hydroxytryptamine receptor 2A (Homo sapiens, UniProt P28223)
[10] = target: 5-hydroxytryptamine receptor 7 (Homo sapiens, UniProt P34969)
[11] = target: T3, 5-hydroxytryptamine receptor 1F (Homo sapiens, UniProt P30939)
T3 sequence (P30939 whole entry): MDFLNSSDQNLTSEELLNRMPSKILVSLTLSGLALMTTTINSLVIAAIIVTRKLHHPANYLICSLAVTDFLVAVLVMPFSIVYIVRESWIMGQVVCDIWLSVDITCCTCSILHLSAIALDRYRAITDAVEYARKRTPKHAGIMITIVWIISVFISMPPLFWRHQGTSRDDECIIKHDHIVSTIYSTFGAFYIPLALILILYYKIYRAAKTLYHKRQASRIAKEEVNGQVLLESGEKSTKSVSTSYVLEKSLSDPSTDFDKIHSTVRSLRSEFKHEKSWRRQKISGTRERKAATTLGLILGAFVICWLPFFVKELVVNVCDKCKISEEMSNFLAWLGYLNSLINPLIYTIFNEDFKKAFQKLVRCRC

[12] = target: 5-hydroxytryptamine receptor 6 (Homo sapiens, UniProt P50406)
[13] = target: D(3) dopamine receptor (Homo sapiens, UniProt P35462)
Sequence of D(3) dopamine receptor (P35462 as listed by the source): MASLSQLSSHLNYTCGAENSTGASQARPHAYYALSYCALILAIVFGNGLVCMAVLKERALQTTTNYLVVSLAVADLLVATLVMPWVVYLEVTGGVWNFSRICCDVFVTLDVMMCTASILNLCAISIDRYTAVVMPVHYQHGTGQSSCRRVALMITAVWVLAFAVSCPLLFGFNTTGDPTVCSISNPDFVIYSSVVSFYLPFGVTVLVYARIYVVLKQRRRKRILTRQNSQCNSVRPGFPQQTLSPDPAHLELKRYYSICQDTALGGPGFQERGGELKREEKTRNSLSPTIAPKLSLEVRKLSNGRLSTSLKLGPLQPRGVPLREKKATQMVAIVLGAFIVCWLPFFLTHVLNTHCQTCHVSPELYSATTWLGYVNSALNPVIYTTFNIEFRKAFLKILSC

Sequence of 5-hydroxytryptamine receptor 1B (P28222 whole entry): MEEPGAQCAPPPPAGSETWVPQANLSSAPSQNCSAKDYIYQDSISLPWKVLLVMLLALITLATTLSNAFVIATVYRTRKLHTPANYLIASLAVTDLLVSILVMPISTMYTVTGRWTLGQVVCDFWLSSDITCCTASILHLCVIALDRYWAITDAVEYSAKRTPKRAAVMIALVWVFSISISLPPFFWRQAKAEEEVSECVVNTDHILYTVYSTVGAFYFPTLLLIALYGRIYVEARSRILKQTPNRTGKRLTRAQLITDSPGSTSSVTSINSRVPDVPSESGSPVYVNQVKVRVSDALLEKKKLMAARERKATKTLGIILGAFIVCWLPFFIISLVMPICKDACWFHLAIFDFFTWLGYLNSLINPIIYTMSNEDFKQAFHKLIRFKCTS
Sequence of 5-hydroxytryptamine receptor 6 (P50406 whole entry): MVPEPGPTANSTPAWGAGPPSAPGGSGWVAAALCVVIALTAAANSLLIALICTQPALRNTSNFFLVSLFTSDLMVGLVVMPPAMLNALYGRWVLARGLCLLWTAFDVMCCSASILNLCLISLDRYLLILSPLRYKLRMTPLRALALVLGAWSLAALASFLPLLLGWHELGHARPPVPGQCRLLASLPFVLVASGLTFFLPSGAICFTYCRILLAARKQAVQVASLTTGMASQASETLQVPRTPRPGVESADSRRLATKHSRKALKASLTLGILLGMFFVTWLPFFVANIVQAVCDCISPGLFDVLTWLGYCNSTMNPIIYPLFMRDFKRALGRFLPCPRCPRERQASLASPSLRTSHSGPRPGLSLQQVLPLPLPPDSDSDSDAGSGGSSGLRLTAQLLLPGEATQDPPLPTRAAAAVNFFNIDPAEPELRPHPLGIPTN
Sequence of 5-hydroxytryptamine receptor 2B (P41595 whole entry): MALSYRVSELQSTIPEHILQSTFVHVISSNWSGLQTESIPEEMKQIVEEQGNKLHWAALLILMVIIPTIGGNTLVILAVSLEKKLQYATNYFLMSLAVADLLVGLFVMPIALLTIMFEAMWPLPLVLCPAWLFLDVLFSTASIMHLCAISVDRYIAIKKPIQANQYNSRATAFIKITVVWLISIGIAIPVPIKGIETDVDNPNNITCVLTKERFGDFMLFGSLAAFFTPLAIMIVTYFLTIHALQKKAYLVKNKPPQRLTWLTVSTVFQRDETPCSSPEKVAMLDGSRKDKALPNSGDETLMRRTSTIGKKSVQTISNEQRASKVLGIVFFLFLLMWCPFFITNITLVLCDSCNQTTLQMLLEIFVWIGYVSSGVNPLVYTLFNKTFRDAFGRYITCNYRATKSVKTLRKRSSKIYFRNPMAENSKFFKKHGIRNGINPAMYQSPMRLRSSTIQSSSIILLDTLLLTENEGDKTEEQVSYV
Sequence of D(2) dopamine receptor (P14416 whole entry): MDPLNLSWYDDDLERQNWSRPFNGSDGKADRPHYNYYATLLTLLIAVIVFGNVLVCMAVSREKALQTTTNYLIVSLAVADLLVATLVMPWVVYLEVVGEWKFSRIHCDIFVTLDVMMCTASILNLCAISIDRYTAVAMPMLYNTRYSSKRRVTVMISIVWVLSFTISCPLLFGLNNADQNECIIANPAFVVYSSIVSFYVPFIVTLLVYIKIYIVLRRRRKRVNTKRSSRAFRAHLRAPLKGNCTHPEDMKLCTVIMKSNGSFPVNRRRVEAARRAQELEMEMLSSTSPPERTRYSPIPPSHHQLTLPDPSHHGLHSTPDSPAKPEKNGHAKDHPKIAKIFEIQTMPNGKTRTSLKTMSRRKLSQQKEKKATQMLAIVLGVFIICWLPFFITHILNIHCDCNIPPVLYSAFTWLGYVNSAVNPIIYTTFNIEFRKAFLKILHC
Sequence of Muscarinic acetylcholine receptor M3 (P20309 whole entry): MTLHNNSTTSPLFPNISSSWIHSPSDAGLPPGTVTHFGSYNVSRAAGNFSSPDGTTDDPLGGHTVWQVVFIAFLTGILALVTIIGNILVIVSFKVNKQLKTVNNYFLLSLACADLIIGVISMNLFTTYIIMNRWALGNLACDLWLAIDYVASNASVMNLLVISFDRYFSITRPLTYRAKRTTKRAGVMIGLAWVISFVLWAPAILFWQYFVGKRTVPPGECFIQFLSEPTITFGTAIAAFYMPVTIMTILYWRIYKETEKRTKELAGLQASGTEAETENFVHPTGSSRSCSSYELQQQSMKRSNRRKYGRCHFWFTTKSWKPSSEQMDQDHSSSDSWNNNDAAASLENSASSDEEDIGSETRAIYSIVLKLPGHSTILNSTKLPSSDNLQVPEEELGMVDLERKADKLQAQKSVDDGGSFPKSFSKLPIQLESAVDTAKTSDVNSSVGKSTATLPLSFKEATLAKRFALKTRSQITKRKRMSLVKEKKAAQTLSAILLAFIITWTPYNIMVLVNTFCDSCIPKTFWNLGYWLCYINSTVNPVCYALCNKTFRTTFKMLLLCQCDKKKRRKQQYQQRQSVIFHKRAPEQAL
Sequence of 5-hydroxytryptamine receptor 7 (P34969 whole entry): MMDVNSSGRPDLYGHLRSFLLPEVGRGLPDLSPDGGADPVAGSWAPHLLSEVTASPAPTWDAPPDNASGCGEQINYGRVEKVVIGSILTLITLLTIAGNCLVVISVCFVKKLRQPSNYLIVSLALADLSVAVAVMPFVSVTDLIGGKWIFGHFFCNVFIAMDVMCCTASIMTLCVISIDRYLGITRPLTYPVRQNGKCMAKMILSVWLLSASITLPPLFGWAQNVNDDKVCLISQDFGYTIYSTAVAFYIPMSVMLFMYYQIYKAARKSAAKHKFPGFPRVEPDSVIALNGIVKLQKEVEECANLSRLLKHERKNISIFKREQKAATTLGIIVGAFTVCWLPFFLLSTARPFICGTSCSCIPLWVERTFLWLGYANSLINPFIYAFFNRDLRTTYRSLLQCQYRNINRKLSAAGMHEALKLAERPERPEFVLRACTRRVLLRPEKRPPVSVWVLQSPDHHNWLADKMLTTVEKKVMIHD
Sequence of 5-hydroxytryptamine receptor 4 (Q29006 whole entry): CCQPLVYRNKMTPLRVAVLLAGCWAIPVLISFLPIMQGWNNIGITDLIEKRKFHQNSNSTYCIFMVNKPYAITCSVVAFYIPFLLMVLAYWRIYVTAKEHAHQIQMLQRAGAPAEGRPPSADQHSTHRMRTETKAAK
Sequence of 5-hydroxytryptamine receptor 1E (P28566 whole entry): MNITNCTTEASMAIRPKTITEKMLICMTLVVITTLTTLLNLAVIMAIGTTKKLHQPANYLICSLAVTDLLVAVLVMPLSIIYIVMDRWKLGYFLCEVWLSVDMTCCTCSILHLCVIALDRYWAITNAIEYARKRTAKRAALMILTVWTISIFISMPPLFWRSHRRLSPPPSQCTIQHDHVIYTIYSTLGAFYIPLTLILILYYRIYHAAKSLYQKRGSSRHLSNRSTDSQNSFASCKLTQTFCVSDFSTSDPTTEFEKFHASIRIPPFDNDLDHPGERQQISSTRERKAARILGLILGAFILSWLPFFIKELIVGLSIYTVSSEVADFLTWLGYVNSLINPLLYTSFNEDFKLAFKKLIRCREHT
Sequence of 5-hydroxytryptamine receptor 2A (P28223 whole entry): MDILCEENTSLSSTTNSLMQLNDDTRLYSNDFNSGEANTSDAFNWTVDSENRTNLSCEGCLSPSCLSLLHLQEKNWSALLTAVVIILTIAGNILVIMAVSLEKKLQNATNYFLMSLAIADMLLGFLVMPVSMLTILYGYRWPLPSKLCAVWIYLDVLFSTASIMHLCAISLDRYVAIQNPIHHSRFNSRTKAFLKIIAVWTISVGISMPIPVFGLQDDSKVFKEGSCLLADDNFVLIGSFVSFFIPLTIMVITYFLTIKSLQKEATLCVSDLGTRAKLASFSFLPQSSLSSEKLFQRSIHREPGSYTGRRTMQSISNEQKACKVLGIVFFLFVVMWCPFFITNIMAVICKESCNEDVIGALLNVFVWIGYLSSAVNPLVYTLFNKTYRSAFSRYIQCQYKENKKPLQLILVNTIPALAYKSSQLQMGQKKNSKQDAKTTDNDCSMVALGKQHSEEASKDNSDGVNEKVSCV

With CCCCCCOc1nsnc1C1=CCCN(C)C1 the Ki [1] was 251 nM, the Ki [2] was 1000 nM and the Ki [3] was 39.8 nM. It also gave a Ki [4] of 50.1 nM, a Ki [5] of 1580 nM and a Ki [6] of 39.8 nM. For the same molecule, the Ki [7] was 2510 nM, the Ki [8] was 19.9 nM and the Ki [9] was 126 nM. For the same molecule, the Ki [10] was 126 nM, the Ki [11] was 316 nM and the Ki [12] was 1260 nM. For the same molecule, the Ki [13] was 398 nM.
